Assay results taken from the METLIN SMRT retention time set (Domingo-Almenara et al. 2019).

assay: gradient 5% acetonitrile 3 min, to 50% in 2 min, to 85% in 15 min, held 3 min, 100 µL/min; details: column: Zorbax Extend-C18 2.1 x 50 mm; eluents: water / acetonitrile, 0.1% formic acid
Procedure, shortened: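 A Zorbax Extend-C18 column (2.1 × 50 mm, 1.8 μm) run at 100 μL/min with water and acetonitrile, both containing 0.1% formic acid, separated mixtures of ~100 pure standards. The HPLC was coupled to a quadrupole time-of-flight mass spectrometer operated in positive and negative ionization mode, with dead and dwell volumes of 40 μL and 900 μL. Each retention time was taken from a computationally picked adduct peak that was then manually inspected.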

| Compound | RP-LC retention time [s] |
| --- | --- |
| COc1ccccc1-c1nc(-c2ccc3c(c2)nnn3CCN2CCCCC2)no1 | 663 |
| CCOC(=O)C1=C(C)NC2=C(C(=O)c3ccccc32)C1c1ccccc1OCC (stereo not given) | 961 |
| CCn1nnc2c(N3CCOCC3)nc(-c3ccc(NC(=O)Nc4ccc(C(=O)N5CCN(C)CC5)cc4)cc3)nc21 | 690 |
| COC(=O)C1=C(CN2CCOCC2)NC(=O)NC1c1ccccc1C (stereo not given) | 590 |
| Cc1noc(C)c1CN1CCN(C(=O)CSc2ccc(F)cc2)CC1 | 570 |
| Cc1nnc(-c2ccc3ccn(CC(=O)Nc4ccc(F)cc4)c3c2)o1 | 795 |
| CCN1CCn2c(nc3cc(C(=O)NCc4ccc(Br)cc4)ccc32)C1=O | 704 |
| CSc1ccc(C(=O)NC2CCCCC2NC(=O)CNC(=O)c2cc(C(F)(F)F)ccc2NC(=O)NC(C)C)cc1 (stereo not given) | 924 |
| COc1cc(-c2ccc(F)cc2)nc2ccc(NS(=O)(=O)c3ccccc3)cc12 | 754 |
| CC(C)Cn1c(CCNC(=O)c2ccc(C#N)cc2)nc2cccnc21 | 709 |
| CCOc1cc(C2NCCc3c2[nH]c2ccc(Cl)cc32)ccc1O (stereo not given) | 671 |
| O=C(C1COc2ccccc2O1)N1CCCn2nc(-c3cccs3)cc2C1 (stereo not given) | 934 |
| CN1C(=O)C2(CCN(C(=O)c3ccnn3C)CC2)c2ccccc21 | 699 |
| Cc1nnc2c(=O)n(CC(=O)NCc3ccccc3C(F)(F)F)c3cccnc3n12 | 734 |
| CC(C)c1nc(-c2ccc(OC3CCN(S(=O)(=O)c4cn(C)cn4)C3)cc2)no1 (stereo not given) | 853 |
| CCn1c(SC)nnc1-c1nn(C)c2c1CN(C(=O)c1ccccc1)CC2 | 740 |
| CC1CCN(S(=O)(=O)c2ccc(-c3nnc(C(=O)NC(C)C)o3)cc2)CC1 | 934 |
| COc1ccc(CN2C(=O)CC(c3ccc(OC)c(OC)c3)CC2=O)cc1 | 879 |
| Cc1sc(C)c(S(=O)(=O)N2CCCC2)c1-c1cc(C(F)(F)F)on1 | 1130 |
| O=C(CCc1ccccc1)NC1CCS(=O)(=O)C1 (stereo not given) | 619 |
| CCOC(=O)c1c(S(=O)(=O)N2CCC(C(=O)NCCc3ccccc3)CC2)c(C)n(C)c1C | 826 |
| CCOCC(=O)N1CCCC1CCc1ncc(C)n1C(C)C (stereo not given) | 574 |
| CC(C)n1cnc2ccc(-c3noc(-c4ccccc4)n3)cc21 | 793 |

| Compound | RP-LC retention time [s] |
| --- | --- |
| Cc1nnc2ccc(-c3noc(-c4ccccc4Br)n3)cn12 | 908 |
| COC(=O)c1ncn2c1C(=O)N(Cc1ccc(C)cc1)C(C)(C(=O)NCc1ccccc1)C2 (stereo not given) | 747 |
| CCn1c(=O)c(N2CCCC(C(=O)NCCCN3CCOCC3)C2)nc2cccnc21 (stereo not given) | 621 |
| COc1ccc(OCc2nnc3sc(-c4cc5ccccc5o4)nn23)cc1 | 984 |
| Cc1nn(-c2ccccc2)c2ccn(CC(=O)N3CCN(c4cccc(Cl)c4)CC3)c(=O)c12 | 927 |
| CCCn1nc(-n2cnnc2)c(NC(=O)c2cc(OC)cc(OC)c2)c1C | 682 |
| Cc1ccc(NC(=O)N2CCC(n3cnc4ccc(C)cc4c3=O)CC2)c(Cl)c1 | 865 |
| CCCNC(=O)C1CCN(c2nc3ccc(-c4ccsc4)nc3s2)CC1 | 851 |
| CCOc1ccc(CNc2nc3ccncc3n(C(C)C)c2=O)cc1OC | 584 |
| COc1ccc(C(C)NC(=O)C2CCN(c3cnc4nccnc4c3)CC2)cc1 (stereo not given) | 695 |
| O=C(NC1CCCCC1)c1nc(-c2cn(-c3ccc(Cl)cc3)nn2)no1 | 1030 |
| Cc1[nH]c2ccccc2c1C(=O)CSc1n[nH]c(N)n1 | 567 |
| CCOc1ccc(C2Cn3nnc(-c4nc(-c5ccccc5)no4)c3CO2)cc1 (stereo not given) | 1200 |
| COc1cc(OC)c(NC(=O)N2CCC(CN3CCCC(C)C3)CC2)cc1Cl (stereo not given) | 630 |
| COCC1(O)CCOC2(CCN(Cc3ccc(F)cc3Cl)CC2)C1 (stereo not given) | 563 |
| CNC(=O)C1CCN(Cc2cc3ccccc3n2Cc2cccc(Cl)c2)CC1 | 683 |
| CCc1ccc(-c2noc(Cn3cnc4c(cnn4-c4cc(Cl)ccc4C)c3=O)n2)cc1 | 1210 |
| CC(C)(C)c1cc(N)n(C2CCS(=O)(=O)C2)n1 (stereo not given) | 623 |
| CN(C(=O)c1cc2c(=O)oc3ccccc3c2n1C)C1CCCCC1 | 908 |
| Cc1ccc(NC(=O)Cn2cnc3c(sc4nc(-c5ccccc5)ccc43)c2=O)c(F)c1 | 982 |
| O=C(Nc1cccc(Cl)c1)C1CCN(c2nccnc2Sc2ccccc2)CC1 | 1170 |
| CCN(C(=O)Cn1c(C(C)NC(=O)c2ccco2)nc2ccccc21)c1ccccc1 (stereo not given) | 704 |
